pEC50: −log10 of the molar value. “Also recorded” adds a separate entry of the source.
Columns and labels:
[1] = molecular target: T1, h-TRPA1 (Homo sapiens, UniProt O75762); assay: Calcium imaging of activation of CHO cells expressing h-TRPA1; assay type: cell-based; details: for Activity vs hTRPA1: CHO cells expressing h-TRPA1; for TRPA1 agonism (result in words): activation of CHO cells expressing h-TRPA1, FIGS. 4, 6, 7
T1 construct: expressed in transfected cells; host or cells: CHO cells
Experimental: Specifically, the activation of CHO cells expressing h-TRPA1 was tested according to the calcium imaging method described in Riera et al. (Riera, C. E., Vogel, H., Simon, S. A., Damak, S., & le Coutre, J. Sensory attributes of complex tasting divalent salts are mediated by TRPM5 and TRPV1 channels. J. Neurosci. 29, 2654-2662 (2009)).

[2] = tested on: endothelial nitric oxide synthase; assay: Phosphorylation of endothelial nitric oxide synthase (western blot) in isolated aortic rat rings; assay type: cell-based; set-up: dose or concentration left out as unconfirmed; details: isolated Wistar rat aortic rings, 1 h incubation, FIG. 12
Experimental: Furthermore, comparative experiments were conducted on the expression of endothelial nitric oxide synthase in isolated aortic rat rings.
Thoracic aortas were obtained from male adults Wistar rats after euthanasia. Each aorta was carefully dissected and harvested cleaned of excess tissue and cut into three equal segments, approximately 7 mm long. All aortic rings were pre-incubated for 30 min in Krebs solution (20 mM Hepes buffer, pH 7.4, containing 119 mM NaCl, 4.7 mM KCl, 1 mM MgSO4, 0.4 mM NaH2PO4, 0.15 mM Na2HPO4, 5 mM NaHCO3, 1.25 mM CaCl2, 5.5 mM glucose) aerated with 95% O2 and 5% CO2 at 37° C. and then incubated with vehicle (DMSO 1%) or the different metabolites for 1 h. Metabolites were first dissolved in DMSO 1% and tested in a final concentration […]. At the end of the incubation period aortic rings were frozen at −70° C. until the homogenate preparation. Homogenates for western blot and western blot determinations were carried out by the regular procedures and phosphorylation level of endothelial nitric oxide synthase was evaluated.

[3] = concentration (max) tested 3 mM
[4] = concentration (max) tested 100 mM

T1 sequence (O75762 whole entry): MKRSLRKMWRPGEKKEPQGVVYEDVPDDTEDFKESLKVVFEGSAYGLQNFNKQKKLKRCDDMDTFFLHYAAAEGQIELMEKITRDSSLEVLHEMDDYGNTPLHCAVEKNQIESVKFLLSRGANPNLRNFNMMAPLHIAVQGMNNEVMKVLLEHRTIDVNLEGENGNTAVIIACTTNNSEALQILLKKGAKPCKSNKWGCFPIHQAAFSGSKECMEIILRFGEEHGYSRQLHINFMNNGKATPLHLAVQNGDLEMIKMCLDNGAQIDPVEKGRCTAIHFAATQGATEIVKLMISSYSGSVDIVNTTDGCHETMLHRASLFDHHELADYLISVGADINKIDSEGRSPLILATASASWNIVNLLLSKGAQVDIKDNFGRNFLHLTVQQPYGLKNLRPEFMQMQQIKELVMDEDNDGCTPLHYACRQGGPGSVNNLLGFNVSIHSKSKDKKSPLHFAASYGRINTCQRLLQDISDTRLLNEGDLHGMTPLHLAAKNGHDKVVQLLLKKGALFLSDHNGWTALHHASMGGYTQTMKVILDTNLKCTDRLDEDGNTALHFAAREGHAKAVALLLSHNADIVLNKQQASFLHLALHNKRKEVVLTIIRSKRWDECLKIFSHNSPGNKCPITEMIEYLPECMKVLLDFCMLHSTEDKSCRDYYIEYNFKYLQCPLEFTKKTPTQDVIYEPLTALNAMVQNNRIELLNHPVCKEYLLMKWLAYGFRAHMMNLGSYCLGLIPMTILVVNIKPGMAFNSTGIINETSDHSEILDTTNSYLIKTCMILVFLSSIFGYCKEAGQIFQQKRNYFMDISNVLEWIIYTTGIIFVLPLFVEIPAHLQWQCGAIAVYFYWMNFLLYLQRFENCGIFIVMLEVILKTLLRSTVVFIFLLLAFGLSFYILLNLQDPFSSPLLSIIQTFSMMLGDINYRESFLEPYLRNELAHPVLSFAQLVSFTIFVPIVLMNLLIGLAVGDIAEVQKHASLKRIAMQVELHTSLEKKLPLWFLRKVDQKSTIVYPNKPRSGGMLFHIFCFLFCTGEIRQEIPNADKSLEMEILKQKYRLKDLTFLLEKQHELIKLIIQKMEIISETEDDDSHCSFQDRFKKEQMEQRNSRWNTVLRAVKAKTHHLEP

Hesperetin-7-3-O-Glucuronide
Activity vs hTRPA1 [1, 3]: Inactive

O=S(=O)(O)Oc1ccc(C2Oc3cc(O)cc(O)c3CC2O)cc1O (stereo not drawn) [4′-sulfate-EC]
Activity vs hTRPA1 [1, 4]: Inactive

Hesperetin-4-O-Glucuronide
Activity vs hTRPA1 [1, 3]: Inactive

COc1ccc(C2Oc3cc(O)cc(O)c3CC2O)cc1O (stereo not drawn) [4′-methyl-EC]
Activity vs hTRPA1 [1, 4]: Inactive

COc1cc([C@H]2Oc3cc(O)cc(O)c3C[C@H]2O)ccc1O [3′-O-methyl epicatechin]
Activity vs hTRPA1 [1, 4]: Inactive
TRPA1 agonism (result in words) [1]: is not a TRPA1 agonist; also recorded: not TRPA1 agonists
TRPA1 agonism (result in words) ([1]; listed as 3′-methyl epicatechin): not TRPA1 agonists

COc1ccc(C2CC(=O)c3c(O)cc(O)cc3O2)cc1O[C@@H]1O[C@H](C(=O)O)[C@@H](O)[C@H](O)[C@H]1O (stereo partly drawn) [Hesperetin-3-O-Glucuronide]
Activity vs hTRPA1 [1, 3]: Inactive

O=C(O)[C@H]1O[C@@H](Oc2ccc([C@H]3Oc4cc(O)cc(O)c4C[C@H]3O)cc2O)[C@H](O)[C@@H](O)[C@@H]1O [4′-O-glucuronide epicatechin]
eNOS phosphorylation relative to control and chemically similar epicatechins [2]: increased eNOS phosphorylation

COc1cc(C2Oc3cc(OS(=O)(=O)O)cc(O)c3CC2O)ccc1O (stereo not drawn) [3′-methyl-7-sulfate-EC]
Activity vs hTRPA1 [1, 4]: Inactive

O=C(O)[C@H]1O[C@@H](Oc2cc([C@H]3Oc4cc(O)cc(O)c4C[C@H]3O)ccc2O)[C@H](O)[C@@H](O)[C@@H]1O [3′-O-glucuronide epicatechin]
eNOS phosphorylation relative to control and chemically similar epicatechins [2]: increased eNOS phosphorylation
Activity vs hTRPA1 ([1]; concentration (max) tested 133 mM): Active
TRPA1 agonism (result in words) [1]: is a TRPA1 agonist; also recorded: agonist of the cation channel of TRPA1
pEC50 ([1]; activation of hTRPA1 in CHO cells): ~1.10
Concentration dependence of activation of CHO cells expressing h-TRPA1 ([1]; different concentrations, dose-response curve, FIGS. 10 and 11): activation occurs in a concentration-dependent manner

CC(C)c1ccc(NC(=O)Cn2cnc3c2c(=O)n(C)c(=O)n3C)cc1 [HC030031]
Blockage of the activation of hTRPA1 by 3′-O-glucuronide epicatechin ([1]; selective hTRPA1 antagonist added, FIG. 9): blocked the activation of hTRPA1

O=S(=O)(O)Oc1cc([C@H]2Oc3cc(O)cc(O)c3C[C@H]2O)ccc1O [3′-O-sulfate epicatechin]
Activity vs hTRPA1 [1, 4]: Inactive
TRPA1 agonism (result in words) [1]: is not a TRPA1 agonist; also recorded: not TRPA1 agonists
